Measurements: ChEMBL document CHEMBL5365481, “Design, Synthesis, and Activity Evaluation of Novel Dual-Target Inhibitors with Antifungal and Immunoregulatory Properties” (J Med Chem, 2023)
Active and inactive are the calls of the source. The calls are words filed in the database; no cut-off is given here.

Experiments:
Candida albicans [1] = test: In vivo antifungal activity against Candida albicans ATCC SC5314 infected in BALB/c mouse assessed as increase in body weight at 10 ug, ip for 14 days in presence of Biphenyl isopropyl ester; format: functional, organism-based; conditions: dose 10.0 µg, time 14.0 day
Candida albicans [2] = test: In vivo antifungal activity against Candida albicans ATCC SC5314 infected in BALB/c mouse assessed as shrinkage in infected region at 10 ug, ip for 14 days in presence of Biphenyl isopropyl ester; format: functional, organism-based; conditions: dose 10.0 µg, time 14.0 day
Candida albicans [3] = test: In vivo antifungal activity against Candida albicans ATCC SC5314 infected in BALB/c mouse assessed as decrease in number of exogenous fungal cells at 10 ug, ip for 14 days in presence of Biphenyl isopropyl ester by H and E staining based microscopy; format: functional, organism-based; conditions: dose 10.0 µg, time 14.0 day
Candida albicans [4] = test: In vivo antifungal activity against Candida albicans ATCC SC5314 infected in BALB/c mouse assessed as disappearance of nuclei aggregation at 10 ug, ip for 14 days in presence of Biphenyl isopropyl ester by GMS staining based microscopy; format: functional, organism-based; conditions: dose 10.0 µg, time 14.0 day
Candida albicans [5] = test: In vivo antifungal activity against Candida albicans ATCC SC5314 infected in BALB/c mouse assessed as reversal of cell morphology to normal state at 10 ug, ip for 14 days in presence of Biphenyl isopropyl ester by GMS staining based microscopy; format: functional, organism-based; conditions: dose 10.0 µg, time 14.0 day
Candida albicans [6] = test: In vivo antifungal activity against Candida albicans ATCC SC5314 infected in BALB/c mouse assessed as decrease in necrotic cell debris in tissue gap at 10 ug, ip for 14 days in presence of Biphenyl isopropyl ester by GMS staining based microscopy; format: functional, organism-based; conditions: dose 10.0 µg, time 14.0 day
[7] = Toxicity in BALB/c mouse infected with Candida albicans ATCC SC5314 assessed as morphological changes in heart at 10 ug, ip for 14 days in presence of Biphenyl isopropyl ester by H and E staining based microscopy; format: organism-based; conditions: in vivo, 336 h, dose 10 µg, time 14 day
[8] = Toxicity in BALB/c mouse infected with Candida albicans ATCC SC5314 assessed as morphological changes in lung at 10 ug, ip for 14 days in presence of Biphenyl isopropyl ester by H and E staining based microscopy; format: organism-based; conditions: in vivo, 336 h, dose 10 µg, time 14 day
[9] = Toxicity in BALB/c mouse infected with Candida albicans ATCC SC5314 assessed as plasma AST level at 10 ug, ip for 14 days in presence of Biphenyl isopropyl ester; format: organism-based; conditions: in vivo, 336 h, dose 10 µg, time 14 day
Candida albicans [10] = test: In vivo antifungal activity against Candida albicans ATCC SC5314 infected in BALB/c mouse assessed as decrease in COX2 expression level at 10 ug, ip for 14 days in presence of Biphenyl isopropyl ester by Western blot analysis; format: functional, organism-based; conditions: dose 10.0 µg, time 14.0 day
Candida albicans [11] = test: In vivo antifungal activity against Candida albicans ATCC SC5314 infected in BALB/c mouse assessed as decrease in IFN-gamma expression level at 10 ug, ip for 14 days in presence of Biphenyl isopropyl ester by Western blot analysis; format: functional, organism-based; conditions: dose 10.0 µg, time 14.0 day
Candida albicans [12] = test: In vivo antifungal activity against Candida albicans ATCC SC5314 infected in BALB/c mouse assessed as decrease in COX2 expression level at 10 ug, ip for 14 days in presence of Biphenyl isopropyl ester by immunohistochemical analysis; format: functional, organism-based; conditions: dose 10.0 µg, time 14.0 day
Candida albicans [13] = test: In vivo antifungal activity against Candida albicans ATCC SC5314 infected in BALB/c mouse assessed as decrease in IL-2 expression level at 10 ug, ip for 14 days in presence of Biphenyl isopropyl ester by immunohistochemical analysis; format: functional, organism-based; conditions: dose 10.0 µg, time 14.0 day
Candida albicans [14] = test: In vivo antifungal activity against Candida albicans ATCC SC5314 infected in BALB/c mouse assessed as fold increase in CD8+ expression level in T cells at 10 ug, ip for 14 days in presence of Biphenyl isopropyl ester by immunohistochemical analysis; format: functional, T-cell; conditions: dose 10 µg, time 14 day
Cell membrane [15] = test: Induction of cell membrane integrity disruption in Candida albicans ATCC SC5314 assessed as decrease in cell wall thickness at 1 microM/ml incubated for 48 to 72 hrs by TEM analysis; format: subcellular; conditions: time 48-72 hrs
Cell membrane [16] = test: Induction of cell membrane integrity disruption in Candida albicans ATCC SC5314 assessed as reduced cytoplasmic density at 1 microM/ml incubated for 48 to 72 hrs by TEM analysis; format: subcellular; conditions: time 48-72 hrs
Cell membrane [17] = test: Induction of cell membrane integrity disruption in Candida albicans ATCC SC5314 assessed as edema vacuoles at 1 microM/ml incubated for 48 to 72 hrs by TEM analysis; format: subcellular; conditions: time 48-72 hrs
Cell membrane [18] = test: Induction of cell membrane integrity disruption in Candida albicans ATCC SC5314 assessed as disappearance of nuclei at 1 microM/ml incubated for 48 to 72 hrs by TEM analysis; format: subcellular; conditions: time 48-72 hrs
Cell membrane [19] = test: Induction of cell membrane integrity disruption in Candida albicans ATCC SC5314 assessed as accumulation of low density particulate matter at 1 microM/ml incubated for 48 to 72 hrs by TEM analysis; format: subcellular; conditions: time 48-72 hrs
Cell membrane [20] = test: Induction of cell membrane integrity disruption in Candida albicans ATCC SC5314 assessed as seepage of cell contents into external region at 1 microM/ml incubated for 96 hrs by TEM analysis; format: subcellular

| SMILES | Activity (Candida albicans [1]) | Activity (Candida albicans [2]) | Activity (Candida albicans [3]) | Activity (Candida albicans [4]) | Activity (Candida albicans [5]) | Activity (Candida albicans [6]) | Activity [7] | Activity [8] | Activity [9] [IU/L] | Activity (Candida albicans [10]) | Activity (Candida albicans [11]) | Activity (Candida albicans [12]) | Activity (Candida albicans [13]) | fold change (FC) (Candida albicans [14]) | Activity (Cell membrane [15]) | Activity (Cell membrane [16]) | Activity (Cell membrane [17]) | Activity (Cell membrane [18]) | Activity (Cell membrane [19]) | Activity (Cell membrane [20]) |
| --- | --- | --- | --- | --- | --- | --- | --- | --- | --- | --- | --- | --- | --- | --- | --- | --- | --- | --- | --- | --- |
| OC(Cn1cncn1)(Cn1cncn1)c1ccc(F)cc1F [FLUCONAZOLE] | Active | Active | Active | Active | Active | Active | Non-Toxic | Non-Toxic | 71.9 | Active | Active | Active | Active | 1.46 |  |  |  |  |  |  |
| CC(=O)c1ccc(C(=O)N2CCC(NC(=O)c3nc(-n4cncn4)c4ccccc4n3)CC2)cc1 |  |  |  |  |  |  |  |  |  |  |  |  |  |  | Active | Active | Active | Active | Active | Active |
